In patent US8575091B1, “Amylin analogues and pharmaceutical compositions thereof” (Novo Nordisk A/S, priority 2012, dated 2013):
Like-named read-outs stand apart in the source and are kept apart here. Numbered stars: 1 amine (or outer) side, 2 acyl side, 3 side chain; on linkers, the order of the positions; unused ones are H or OH. Bridge positions count the residues as written; N and C are the ends. Side chains are listed from the residue outwards. Peptide text beside a SMILES is read from it. * marks the point of attachment. C20 diacid = O=C(O)CCCCCCCCCCCCCCCCCCC(=O)*; γGlu = O=C(O)[C@H](CCC(=O)[*:2])N[*:1]; AEEA = NCCOCCOCC(=O)O

Assays:
[1] = biological target: T1, human amylin receptor (amylin 3(a) receptor: human calcitonin receptor + RAMP-3) (Homo sapiens, UniProt O60896+P30988); experiment: Assay (II)a functional assay, human amylin receptor (CRE luciferase, BHK cells); type: cell-based; details: for EC50: read-out: hAmylin-R funct. EC50
T1 construct: expressed in transfected cells
T1 sequence (P30988 25-474): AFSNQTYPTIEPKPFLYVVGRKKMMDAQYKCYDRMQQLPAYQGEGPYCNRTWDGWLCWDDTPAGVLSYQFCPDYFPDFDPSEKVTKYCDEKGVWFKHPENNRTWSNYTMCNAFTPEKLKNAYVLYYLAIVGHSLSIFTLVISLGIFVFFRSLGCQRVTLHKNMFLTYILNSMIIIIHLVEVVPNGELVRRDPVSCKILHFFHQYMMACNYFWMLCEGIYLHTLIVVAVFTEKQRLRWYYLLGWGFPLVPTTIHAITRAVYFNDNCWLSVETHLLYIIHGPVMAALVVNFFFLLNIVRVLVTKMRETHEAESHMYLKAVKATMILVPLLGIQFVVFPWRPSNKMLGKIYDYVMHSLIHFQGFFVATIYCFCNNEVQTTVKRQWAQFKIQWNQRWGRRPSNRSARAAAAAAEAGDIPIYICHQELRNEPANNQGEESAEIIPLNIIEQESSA
T1 sequence (O60896 24-148 partner): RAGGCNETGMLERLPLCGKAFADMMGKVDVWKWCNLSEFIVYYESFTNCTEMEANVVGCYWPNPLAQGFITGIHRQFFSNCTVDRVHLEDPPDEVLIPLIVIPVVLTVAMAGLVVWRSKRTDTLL

[2] = biological target: T2, human calcitonin receptor (Homo sapiens, UniProt P30988); experiment: Assay (II)a functional assay, human calcitonin receptor (CRE luciferase, BHK cells);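 also: luminescence from a CRE-driven luciferase reporter, read by single photon counting after cells were exposed to test samples for 3 h at 37 °C under 5% CO2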; type: cell-based; details: read-out: hCTR funct. EC50
T2 construct: expressed in transfected cells
T2 sequence (P30988 25-474): T1 sequence (P30988 25-474)

human amylin receptor = biological target: T3, human amylin receptor (Homo sapiens, UniProt O60896+P30988); experiment: Assay (V) binding to the human amylin receptor (SPA, 125I-rat amylin); details: for IC50: human amylin receptor membranes, SPA, read-out: hAmylin-R bind IC50
T3 construct: expressed in transfected cells
T3 sequence (P30988 25-474): T1 sequence (P30988 25-474)
T3 sequence (O60896 24-148 partner): T1 sequence (O60896 24-148 partner)
Procedure, shortened: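 IC50, taken as receptor affinity, came from one-site binding competition analysis of scintillation proximity counts. Amylin 3(a)/CRE-luc cell membranes (35 ng/μL final) were mixed with SPA beads (0.05 mg/well) in 50 mM Hepes pH 7.4 containing CaCl2, MgCl2, 0.1% OA and 0.02% Tween20.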

[3] = biological target: T2, human calcitonin receptor; experiment: Assay (VII) binding to the human calcitonin receptor (SPA, 125I-Calcitonin); details: read-out: hCTR bind IC50;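 also: cell membranes coupled to SPA beads, competitive displacement read by scintillation counting, IC50 derived from a one-site competition fit as a measure of receptor affinity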
[4] = Table 6, human functional selectivity (hCTR EC50 / hAmylin-R EC50)
[5] = Table 6a, human functional selectivity (hCTR EC50 / hAmylin-R EC50), at least 5
[6] = Table 6i, hCTR funct. EC50 / hAmylin-R funct. EC50
[7] = Table 6j, hCTR funct. EC50 / hAmylin-R funct. EC50
[8] = Table 6k, hCTR funct. EC50 / hAmylin-R funct. EC50
[9] = Table 7b, human calcitonin receptor binding IC50 divided by human amylin receptor binding IC50
[10] = human binding ratio, included for comparison
[11] = functional assay, human amylin receptor

Row | SMILES | Ratio hCT/hAmylin funct. [1, 4] | Ratio hCT/hAmylin funct. [1, 5] | Ratio hCT/hAmylin funct. [1, 6] | EC50 ([1]; Table 6i, human amylin receptor functional) | Ratio hCT/hAmylin funct. [1, 7] | Ratio hCT/hAmylin funct. [1, 8] | EC50 [2] | Ratio hCT/hAmylin binding (human amylin receptor; [9]) | IC50 (human amylin receptor) | Ratio hCT/hAmylin binding (human amylin receptor; [10]) | IC50 [3] | EC50 ([1]; Table 6j, human amylin receptor functional) | Ratio hCT/hAmylin binding (human amylin receptor; Table 7c, human calcitonin receptor binding IC50 divided by human amylin receptor binding IC50) | EC50 [1, 11] | Ratio hCT/hAmylin funct. ([1]; hCTR funct. EC50 divided by hAmylin-R funct. EC50)
1 | CC[C@H](C)[C@H](NC(=O)[C@H](C)NC(=O)CNC(=O)[C@H](Cc1ccccc1)NC(=O)[C@H](CC(N)=O)NC(=O)[C@@H]1CCCN1C(=O)[C@H](CO)NC(=O)[C@H](CO)NC(=O)[C@H](Cc1c[nH]cn1)NC(=O)[C@H](CCCNC(=N)N)NC(=O)[C@H](CC(C)C)NC(=O)[C@H](Cc1ccccc1)NC(=O)[C@H](CCC(=O)O)NC(=O)[C@H](C)NC(=O)[C@H](CC(C)C)NC(=O)[C@H](CCCNC(=N)N)NC(=O)[C@H](CCC(N)=O)NC(=O)[C@@H](NC(=O)[C@H](C)NC(=O)[C@@H]1CSSC[C@H](NC(=O)[C@@H](N)CCCCNC(=O)CC[C@H](NC(=O)CC[C@H](NC(=O)CCCCCCCCCCCCCCCCCCC(=O)O)C(=O)O)C(=O)O)C(=O)N[C@@H](CC(N)=O)C(=O)N[C@@H]([C@@H](C)O)C(=O)N[C@@H](C)C(=O)N[C@@H]([C@@H](C)O)C(=O)N1)[C@@H](C)O)C(=O)N1CCC[C@H]1C(=O)N[C@@H](CO)C(=O)N[C@@H](CO)C(=O)N[C@H](C(=O)N[C@@H](CC(N)=O)C(=O)N[C@H](C(=O)NCC(=O)N1CCC[C@H]1C(=O)N[C@@H](CC(N)=O)C(=O)N[C@H](C(=O)N[C@@H](Cc1ccccc1)C(N)=O)[C@@H](C)O)C(C)C)[C@@H](C)O [Example 127] (H-K([γGlu-γGlu-C20 diacid])CNTATCATQRLAEFLRHSSPNFGAIPSSTNVGPNTF-NH2; disulfide 2-7) | 9.9 | 9.9 | 9.9 | 0.216 nM | 9.9 | 9.9 | 2.14 nM | 18.0 | 0.152 nM | 18.0 | 2.73 nM | – | – | – | –
2 | CC[C@H](C)[C@H](NC(=O)[C@H](C)NC(=O)CNC(=O)[C@H](Cc1ccccc1)NC(=O)[C@H](CC(N)=O)NC(=O)[C@@H]1CCCN1C(=O)[C@H](CO)NC(=O)[C@H](CO)NC(=O)[C@H](Cc1c[nH]cn1)NC(=O)[C@H](CCCNC(=N)N)NC(=O)[C@H](CC(C)C)NC(=O)[C@H](Cc1ccccc1)NC(=O)CNC(=O)[C@H](C)NC(=O)[C@H](CC(C)C)NC(=O)[C@H](CCCNC(=N)N)NC(=O)[C@H](CCC(N)=O)NC(=O)[C@@H](NC(=O)[C@H](C)NC(=O)[C@@H]1CSSC[C@H](NC(=O)[C@@H](N)CCCCNC(=O)COCCOCCNC(=O)CC[C@H](NC(=O)CCCCCCCCCCCCCCCCCCC(=O)O)C(=O)O)C(=O)N[C@@H](CC(N)=O)C(=O)N[C@@H]([C@@H](C)O)C(=O)N[C@@H](C)C(=O)N[C@@H]([C@@H](C)O)C(=O)N1)[C@@H](C)O)C(=O)N1CCC[C@H]1C(=O)N[C@@H](CO)C(=O)N[C@@H](CO)C(=O)N[C@H](C(=O)N1CCC[C@H]1C(=O)N[C@H](C(=O)NCC(=O)N[C@@H](CO)C(=O)N[C@@H](CC(N)=O)C(=O)N[C@H](C(=O)N[C@@H](Cc1ccc(O)cc1)C(N)=O)[C@@H](C)O)C(C)C)[C@@H](C)O [Example 71] (H-K([AEEA-γGlu-C20 diacid])CNTATCATQRLAGFLRHSSPNFGAIPSSTPVGSNTY-NH2; disulfide 2-7) | 9.4 | 9.4 | – | – | 9.4 | 9.4 | 0.527 nM | 32.0 | 0.048 nM | 32.0 | 1.54 nM | 0.056 nM | 32.0 | – | –
3 | CC[C@H](C)[C@H](NC(=O)[C@H](C)NC(=O)CNC(=O)[C@H](Cc1ccccc1)NC(=O)[C@H](CC(N)=O)NC(=O)[C@@H]1CCCN1C(=O)[C@H](CO)NC(=O)[C@H](CO)NC(=O)[C@H](Cc1c[nH]cn1)NC(=O)[C@H](CCCNC(=N)N)NC(=O)[C@H](CC(C)C)NC(=O)[C@H](Cc1ccccc1)NC(=O)[C@H](Cc1c[nH]cn1)NC(=O)[C@H](C)NC(=O)[C@H](CC(C)C)NC(=O)[C@H](CCCNC(=N)N)NC(=O)[C@H](CCC(N)=O)NC(=O)[C@@H](NC(=O)[C@H](C)NC(=O)[C@@H]1CSSC[C@H](NC(=O)[C@H](CCCNC(=N)N)NC(=O)CNC(=O)CC[C@H](NC(=O)CCCCCCCCCCCCCCCCCCC(=O)O)C(=O)O)C(=O)N[C@@H](CC(N)=O)C(=O)N[C@@H]([C@@H](C)O)C(=O)N[C@@H](C)C(=O)N[C@@H]([C@@H](C)O)C(=O)N1)[C@@H](C)O)C(=O)N1CCC[C@H]1C(=O)N[C@@H](CO)C(=O)N[C@@H](CO)C(=O)N[C@H](C(=O)N[C@@H](CC(N)=O)C(=O)N[C@H](C(=O)NCC(=O)N1CCC[C@H]1C(=O)N[C@@H](CC(N)=O)C(=O)N[C@H](C(=O)N[C@@H](Cc1ccc(O)cc1)C(N)=O)[C@@H](C)O)C(C)C)[C@@H](C)O [Example 102] ({C20 diacid-γGlu}-GRCNTATCATQRLAHFLRHSSPNFGAIPSSTNVGPNTY-NH2; disulfide 3-8) | 2.9 | – | – | – | – | – | 0.179 nM | – | 0.217 nM | – | 7.86 nM | – | – | 0.062 nM | –
4 | CC[C@H](C)[C@H](NC(=O)[C@H](C)NC(=O)CNC(=O)[C@H](Cc1ccccc1)NC(=O)[C@H](CC(N)=O)NC(=O)[C@@H]1CCCN1C(=O)[C@H](CO)NC(=O)[C@H](CO)NC(=O)[C@H](Cc1c[nH]cn1)NC(=O)[C@H](CCCNC(=N)N)NC(=O)[C@H](CC(C)C)NC(=O)[C@H](Cc1ccccc1)NC(=O)[C@H](CCC(=O)O)NC(=O)[C@H](C)NC(=O)[C@H](CC(C)C)NC(=O)[C@H](CCCNC(=N)N)NC(=O)[C@H](CCC(N)=O)NC(=O)[C@@H](NC(=O)[C@H](C)NC(=O)[C@@H]1CSSC[C@H](NC(=O)[C@@H](N)CCCCNC(=O)CC[C@H](NC(=O)CC[C@H](NC(=O)CCCCCCCCCCCCCCCCCCC(=O)O)C(=O)O)C(=O)O)C(=O)N[C@@H](CC(N)=O)C(=O)N[C@@H]([C@@H](C)O)C(=O)N[C@@H](C)C(=O)N[C@@H]([C@@H](C)O)C(=O)N1)[C@@H](C)O)C(=O)N1CCC[C@H]1C(=O)N[C@@H](CO)C(=O)N[C@@H](CO)C(=O)N[C@H](C(=O)N[C@@H](CC(N)=O)C(=O)N[C@H](C(=O)NCC(=O)N1CCC[C@H]1C(=O)N[C@@H](CCC(=O)O)C(=O)N[C@H](C(=O)N1CCC[C@H]1C(N)=O)[C@@H](C)O)C(C)C)[C@@H](C)O [Example 125] (H-K([γGlu-γGlu-C20 diacid])CNTATCATQRLAEFLRHSSPNFGAIPSSTNVGPETP-NH2; disulfide 2-7) | 0.8 | – | – | – | – | – | 0.102 nM | – | 0.533 nM | 0.4 | 0.226 nM | – | – | 0.132 nM | –
5 | CC[C@H](C)[C@H](NC(=O)[C@H](C)NC(=O)CNC(=O)[C@H](Cc1ccccc1)NC(=O)[C@H](CC(N)=O)NC(=O)[C@@H]1CCCN1C(=O)[C@H](CO)NC(=O)[C@H](CO)NC(=O)[C@H](Cc1c[nH]cn1)NC(=O)[C@H](CCCNC(=N)N)NC(=O)[C@H](CC(C)C)NC(=O)[C@H](Cc1ccccc1)NC(=O)[C@H](CCC(=O)O)NC(=O)[C@H](C)NC(=O)[C@H](CC(C)C)NC(=O)[C@H](CCCNC(=N)N)NC(=O)[C@H](CCC(N)=O)NC(=O)[C@@H](NC(=O)[C@H](C)NC(=O)[C@@H]1CSSC[C@H](NC(=O)[C@@H](N)CCCCNC(=O)CC[C@H](NC(=O)CC[C@H](NC(=O)CCCCCCCCCCCCCCCCCCC(=O)O)C(=O)O)C(=O)O)C(=O)N[C@@H](CC(N)=O)C(=O)N[C@@H]([C@@H](C)O)C(=O)N[C@@H](C)C(=O)N[C@@H]([C@@H](C)O)C(=O)N1)[C@@H](C)O)C(=O)N[C@@H](CC(C)C)C(=O)N[C@@H](CO)C(=O)N[C@@H](CO)C(=O)N[C@H](C(=O)N1CCC[C@H]1C(=O)N[C@H](C(=O)NCC(=O)N1CCC[C@H]1C(=O)N[C@@H](CCC(=O)O)C(=O)N[C@H](C(=O)N[C@@H](Cc1ccc(O)cc1)C(N)=O)[C@@H](C)O)C(C)C)[C@@H](C)O [Example 121] (H-K([γGlu-γGlu-C20 diacid])CNTATCATQRLAEFLRHSSPNFGAILSSTPVGPETY-NH2; disulfide 2-7) | 5.8 | 5.8 | 5.8 | – | – | – | 1.28 nM | – | 0.069 nM | – | 1.56 nM | – | – | 0.222 nM | 5.8
